Data: patent US7238689B2, “Isoxazoline derivative and herbicide comprising the same as active ingredient” (Ihara Chemical Industry Co., Ltd., priority 2001, dated 2007)

Experiments:
[1] = tested on: Echinochloa crus-galli (L.) Beauv. var. crusgalli; test: Herbicidal effect by upland field soil treatment; type: in vivo; parameters: scale not given here; details: active ingredient 1000 g/ha, examined at 21st day from treatment
Text: (§1) An upland field soil was filled in a plastic pot of 80 cm^2. Seeds of Echinochloa crus-galli (L.) Beauv. var. crusgalli and Setaria viridis (L.) Beauv. were sowed, followed by covering with the same soil. […] Then, breeding was made in a greenhouse, and the herbicidal effect of each wettable powder was examined at the 21st day from the treatment in accordance with the standard shown in Table 21.

[2] = tested on: Setaria viridis (L.) Beauv.; test: Herbicidal effect by upland field soil treatment; type: in vivo; parameters: scale not given here; details: active ingredient 1000 g/ha, examined at 21st day from treatment
Text: as §1

[3] = tested on: Monochoria vaginalis (Murm. f.) Presl var. plantaginea (Roxb.) Solms-Laub.; test: Herbicidal effect by paddy field soil treatment; type: in vivo; parameters: scale not given here; details: wettable powder, active ingredient 1000 g/ha, examined at the 21st day from the treatment
Summary of the method: (§2)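 Seeds sown in puddled paddy soil under 3 cm of water; the next day wettable powders diluted in water were dropped onto the water surface at 1,000 g active ingredient/ha. Plants grown in a greenhouse, with herbicidal effect scored on day 21 against a rating standard.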

[4] = tested on: Echinochloa oryzicola Vasing; test: Herbicidal effect by paddy field soil treatment; type: in vivo; parameters: scale not given here; details: wettable powder, active ingredient 1000 g/ha, examined at the 21st day from the treatment
Summary of the method: as §2

[5] = tested on: Echinochloa crus-galli (L.) Beauv. var. crus-galli; test: Herbicidal effect by upland foliage treatment; type: in vivo; parameters: scale not given here; details: active ingredient 1000 g/ha, examined at 14th day from treatment
Description: (§3) A sand was filled in a plastic pot of 80 cm^2. Seeds of Echinochloa crus-galli (L.) Beauv. var. crus-galli and Setaria viridis (L.) Beauv. were sowed. Breeding was made in a greenhouse for 2 weeks. Wettable powders produced in accordance with the Formulation 1 were diluted with water and sprayed on the whole foliage of plants from above the plants using a small sprayer in an amount of 1,000 liters per 1 hectare so that the amount of each active ingredient became 1,000 g per 1 hectare. Then, breeding was made in the greenhouse, and the herbicidal effect of each wettable powder was examined at the 14th day from the treatment in accordance with the standard shown in Table 21.

[6] = tested on: Setaria viridis (L.) Beauv.; test: Herbicidal effect by upland foliage treatment; type: in vivo; parameters: scale not given here; details: active ingredient 1000 g/ha, examined at 14th day from treatment
Description: as §3

Row | melting point | SMILES | herbicidal effect (index per standard of Table 21), Echinochloa curs-galli (L.) Beauv. Var. crus-galli [1] | herbicidal effect (index per standard of Table 21), Setaria viridis (L.) Beauv. [2] | Herbicidal effect index, Monochoria vaginalis (Burm. F.) Presl var. plantaginea (Roxb.) Solms-Laub. [3] | Herbicidal effect index, Echinochloa oryzicola Vasing [4] | herbicidal effect (index per standard of Table 21), Echinochloa curs-galli (L.) Beauv. Var. crus-galli [5] | herbicidal effect (index per standard of Table 21), Setaria viridis (L.) Beauv. [6]
1 | 124 to 125 °C | CCOc1nn(C)c(C(F)(F)F)c1CS(=O)(=O)C1=NOC(C)(C)C1 [3-0012, 5,5-dimethyl-3-(3-ethoxy-1-methyl-5-trifluoromethyl-1H-pyrazol-4-ylmethylsulfonyl)-2-isoxazoline] | 5 | 5 |  |  |  | 
2 | 105 to 107 °C | CCn1nc(Cl)c(CS(=O)(=O)C2=NOC(C)(C)C2)c1Cl [3-0017, 3-(3,5-dichloro-1-ethyl-1H-pyrazol-4-ylmethylsulfonyl)-5,5-dimethyl-2-isoxazoline] | 5 | 5 |  |  |  | 
3 | 79 to 81 °C | CC1(C)CC(SCc2c(C(F)(F)F)nn(C(C)(C)C)c2Cl)=NO1 [3-0006, 3-(1-tert-butyl-5-chloro-3-trifluoromethyl-1H-pyrazol-4-ylmethylthio)-5,5-dimethyl-2-isoxazoline] | 4 | 4 |  |  |  | 
4 | 120 to 122 °C | CC1(C)CC(SCc2c(C(F)(F)F)n[nH]c2Cl)=NO1 [3-0007, 3-(5-chloro-3-trifluoromethyl-1H-pyrazol-4-ylmethylthio)-5,5-dimethyl-2-isoxazoline] |  |  |  |  |  | 
5 | 78 to 79 °C | Cn1nc(C(F)F)c(CS(=O)(=O)C2=NOC(C)(C)C2)c1Cl [3-0018, 3-(5-chloro-3-difluoromethyl-1-methyl-1H-pyrazol-4-ylmethylsulfonyl)-5,5-dimethyl-2-isoxazoline] | 5 | 5 |  |  |  | 
6 |  | Cn1ncc(C(F)(F)F)c1CS(=O)(=O)C1=NOC(C)(C)C1 [5-0003] | 5 | 5 | 5 | 5 | 5 | 4
7 |  | CC(C)Cn1nc(C(F)(F)F)c(CS(=O)(=O)C2=NOC(C)(C)C2)c1Cl [3-0083] | 5 | 5 | 5 | 5 | 4 | 4
8 |  | CCCCn1nc(C(F)(F)F)c(CS(=O)(=O)C2=NOC(C)(C)C2)c1Cl [3-0085] | 5 | 5 | 5 | 5 | 4 | 4
9 |  | CC1(C)CC(S(=O)(=O)Cc2ccsc2)=NO1 [2-0003] | 5 | 5 | 5 | 5 | 5 | 4
10 |  | Cc1cc[n+]([O-])c(Cl)c1CS(=O)(=O)C1=NOC(C)(C)C1 [7-0008] | 5 | 5 | 5 | 5 | 5 | 5
11 |  | Cc1nn(C)c(Cl)c1CS(=O)(=O)C1=NOC(C)(C)C1 [3-0037] | 5 | 5 | 5 | 5 | 5 | 4
12 |  | Cn1nc(C(F)(F)F)c(CS(=O)(=O)C2=NOC(C)(C)C2)c1Cl [3-0039] | 5 | 5 | 5 | 5 | 5 | 5
13 |  | COCn1nc(C(F)(F)F)c(CS(=O)(=O)C2=NOC(C)(C)C2)c1Cl [3-0118] | 5 | 5 | 5 | 5 | 5 | 4
14 | 89 to 90 °C | CC1(C)CC(SCc2c(C(F)(F)F)nn(-c3ccccc3)c2Cl)=NO1 [3-0001, 3-(5-chloro-1-phenyl-3-trifluoromethyl-1H-pyrazol-4-ylmethylthio)-5,5-dimethyl-2-isoxazoline] |  |  |  |  |  | 
15 |  | CCC(C)n1nc(C(F)(F)F)c(CS(=O)(=O)C2=NOC(C)(C)C2)c1Cl (stereo not shown) [3-0081] | 5 | 5 | 5 | 5 | 4 | 4
16 |  | Cc1ccsc1CS(=O)(=O)C1=NOC(C)(C)C1 [1-0001] | 5 | 5 | 5 | 5 | 5 | 4
17 | 77 to 80 °C | CC1(C)CC(S(=O)(=O)Cc2cnccc2C(F)(F)F)=NO1 [7-0001, 5,5-dimethyl-3-(4-trifluoromethyl-pyridin-3-ylmethylsulfonyl)-2-isoxazoline] |  |  |  |  |  | 
18 |  | CCc1nn(C)c(CS(=O)(=O)C2=NOC(C)(C)C2)c1Cl [5-0002] | 5 | 5 | 5 | 5 | 5 | 5
19 |  | CCOCn1nc(C(F)(F)F)c(CS(=O)(=O)C2=NOC(C)(C)C2)c1Cl [3-0120] | 5 | 5 | 5 | 5 | 5 | 5
20 |  | Cc1cc(CS(=O)(=O)C2=NOC(C)(C)C2)no1 [6-0004] | 5 | 5 | 5 | 5 | 5 | 4
21 |  | CC(=O)CCn1nc(C(F)(F)F)c(CS(=O)(=O)C2=NOC(C)(C)C2)c1Cl [3-0144] | 5 | 5 | 5 | 5 | 5 | 5
22 | 150 to 151 °C | CN(C)c1c(CS(=O)(=O)C2=NOC(C)(C)C2)c(C(F)(F)F)nn1-c1ccccc1 [3-0005, 5,5-dimethyl-3-(5-dimethylamino-1-phenyl-3-trifluoromethyl-1H-pyrazol-4-ylmethylsulfonyl)-2-isoxazoline] |  |  |  |  |  | 
